By solubility is commonly meant how much of the substance goes into solution per volume.

In one data set the test system is MRSA and VRE. In words: Effect of serum on NOVO4 MIC. Type of data set: cell-based. As to conditions: MIC without serum compared to media with 10% calf bovine serum. The method, then:
These studies follow the procedure for determining the MIC described above in Example 5. Briefly, two-fold serial dilution of the NOVO4 compound are added to the test cells of interest, MRSA and VRE, and the lowest concentration of compound that inhibits growth after a period of incubation is considered to be the MIC. To determine the effect of serum on the activity of NOVO4, MIC in the absence of serum is compared to MIC in media supplemented with 10% calf bovine serum (ATCC 30-2030).

For data set [1], the system named is NIH3T3 mouse embryonic fibroblasts. Description: Mammalian cytotoxicity assay (CellTiter 96 AQueous One). Type of data set: cell-based. As to conditions: NIH3T3 cells, 24 hr, highest tested 16 μg/ml. The method, then:
Mammalian cytotoxicity assays were performed using NIH3T3 mouse embryonic fibroblasts (ATCC CRL-1658), and cytotoxicity was measured using the CellTiter 96® AQueous One Solution Cell Proliferation Assay (Promega, Madison, Wis., Cat: G3582), according to the manufacturer's recommendations.
100× working stocks of 2-fold serial dilution of NOVO4 in DMSO were created in a 96 well format. The highest concentration of the 100× concentration (working stock) was prepared by adding […] of the stock solution of NOVO4 (10 mg/ml in DMSO) for every 0.68 μl of DMSO to well A02. 0.5 μl of this 100× stock was added for every 0.5 μl of DMSO in well A03 to create a total of 7 two-fold serial dilution series, from 1600 μg/ml to 25 μg/ml (from highest in well A02 to A08,). A DMSO control was also included (wells in column A01, and A12). […]
The plate was visually inspected under a dissecting microscope, and the absorbance at 490 nm was read using a Spectramax Plus Spectrophotometer, with wells A12, and B12 reserved as blanks. The signal of compound alone (well A11) was verified not to contribute to the absorbance at this wavelength. Next, 20 μl of the CellTiter 96® AQueous One Solution Cell Proliferation Assay (Promega, Madison, Wis., Cat: G3582) was added to each well, and the plate was read after 3 hr of incubation. […]

The subject of another data set is B. subtilis 1A1. Description: MIC broth dilution. The class given is cell-based. As to conditions: Bacillus subtilis, 1A1, B. subtilis 1A1.
The next data set concerns E. faecium (VRE JM89). Description: MIC broth dilution. The class given is cell-based. As to conditions: Enterococcus faecium. For orientation: Broth dilution looks for growth in wells or tubes with falling amounts of substance.
Another data set deals with E. faecium MG1953. In words: MIC broth dilution. Type of data set: cell-based. The conditions noted are these: Enterococcus faecium.
The subject of another data set is MRSA NRS1. Description: MIC broth dilution. The class given is cell-based, Methicillin-resistant Staphylococcus aureus. As to conditions: Staphylococcus aureus.
The test system of the next data set is B. anthracis sterne. Description: microbe, parasite or virus in culture. Type of data set: cell-based. The conditions noted are these: Bacillus anthracis.
For the next data set, the system named is E. faecalis (VRE BM4147). Description: MIC broth dilution. The conditions noted are these: Enterococcus faecalis. The class given is cell-based.
A further data set relates to bacterial cells. Description: Solid agar growth inhibition zone assay. Type of data set: cell-based. As to conditions: MHB agar, 5 μl spot, 16 hr to 24 hr incubation; strain not named. On the procedure:
This can be achieved in different assay format; bacteria growing on solid agar media or bacteria growing in broth such as for Example 5 and 6 (Minimal Inhibition Concentration).
For solid agar format, bacterial cells are first grown in a suitable media such as Mueller Hinton broth (MHB) until exponential phase (OD600<1.0). The cells are diluted back to OD600=0.02 in MHB, and evenly applied as a thin layer on the surface of a plate of solid growth media, such as MHB agar (about 0.1 ml onto a surface area of 100 cm^2). After the surface is dried, a 5 μl aliquot of a 2-fold serial dilution of NOVO4 (in 50% DMSO) is spotted onto the surface of the agar plate. After 16 hr to 24 hr of incubation, depending on the bacterial strain of interest, the diameter of zones of growth inhibition is measured.

The next data set deals with MSSA (ATCC 13709). Description: MIC broth dilution. Type of data set: cell-based, Staphylococcus aureus.
A further data set deals with S. pneumoniae BAA225. Description: MIC broth dilution. The class given is cell-based. The conditions noted are these: Streptococcus pneumoniae.
The next data set concerns MRSA NRS108. Description: MIC broth dilution. The class given is cell-based, Methicillin-resistant Staphylococcus aureus. The conditions noted are these: Staphylococcus aureus.
In another data set the test system is E. faecium E4So1. Description: MIC broth dilution. Type of data set: cell-based. As to conditions: Enterococcus faecium.
In the next data set the test system is human red blood cells. The class given is cell-based. On the procedure:
The effect of NOVO4 on the hemolysis of human red blood cells was also tested. A total of 10 ml of expired packed red blood cells from the blood bank was gently added to 80 ml of PBS (Phosphate buffered saline), and pelleted at 1000 g for 5 minutes at 4° C. The upper phase and buffy layer (white blood cells) were removed. The cells are repeatedly washed by gentle mixing with PBS, and centrifugation until the upper phase is clear. In the last wash, 40 ml of 1×PBS with 0.05% BSA was added to half of the red blood cells while 40 ml of 1×PBS without BSA was added to the other half. The upper phase of the last wash was removed to leave a total volume of about 10 ml. The concentration of the red blood cells was measured by using the spectrophometer at 600 nm. An aliquot of the cells are diluted to a final density OD600 of 24 in 1×PBS, and another to a final density OD600 of 24 in 1×PBS with 0.05% BSA.
The compound NOVO4 is two-fold serially diluted (similar to that described above for mammalian NIH3T3 cytotoxicity assay) as 100× concentration in DMSO, ranging from 0.4 μg/ml to 400 μg/ml. […] After thorough mixing, the A450 was read using a Spectramax Plus Spectrophotometer, using wells with only 1×PBS as blanks. […]

Values after ≈ are worked out from the molar mass of the structure shown. Like-named read-outs stand apart in the source and are kept apart here.

On to `CC1\C=C/C=C\C=C/C=C\C=C/C(OC2OCC(O)C(O)C2N)C(C)(O)/C=C/C=C\C=C/C=C/C(=O)NC1` (stereo not shown) [NOVO4], for which the “effect of calf bovine serum on the MIC” value in the data set with MRSA and VRE was “no significant effect”. Besides, the LD50 in data set [1] was > 16 µg/mL. Moreover, the MIC in the data set on B. subtilis 1A1 (MHB) is 0.06 to 1 µg/mL (≈ 0.114 to 1.91 µM); in the data set on B. subtilis 1A1 (MHB + 0.05% BSA), 0.125 µg/mL; in the data set on B. subtilis 1A1 (MHB + 10% FCS) it was 0.06 to 0.5 µg/mL; with E. faecium (VRE JM89) (MHB), 4 µg/mL (≈ 7.62 µM); with E. faecium (VRE JM89) (MHB + 0.05% BSA) it was 2 µg/mL; in the data set on E. faecium (VRE JM89) (MHB + 10% FCS) it was 2 µg/mL. Also, the MIC is 2 to 4 µg/mL (≈ 3.81 to 7.62 µM) with E. faecium MG1953 (MHB); 1 to 2 µg/mL with E. faecium MG1953 (MHB + 0.05% BSA); 2 µg/mL with E. faecium MG1953 (MHB + 10% FCS); 2 to 4 µg/mL (≈ 3.81 to 7.62 µM) in the data set with MRSA NRS1 (MHB); 0.5 µg/mL with MRSA NRS1 (MHB + 0.05% BSA); 1 µg/mL in the data set on MRSA NRS1 (MHB + 10% FCS). Further, the MIC against B. anthracis sterne (MHB) was 0.25 to 0.5 µg/mL (≈ 0.477 to 0.953 µM); in the data set with B. anthracis sterne (MHB + 0.05% BSA), 0.125 to 0.5 µg/mL; in the data set with B. anthracis sterne (MHB + 10% FCS), 0.25 to 0.5 µg/mL; with E. faecalis (VRE BM4147) (MHB) it was 2 to 4 µg/mL (≈ 3.81 to 7.62 µM); in the data set with E. faecalis (VRE BM4147) (MHB + 0.05% BSA), 1 to 2 µg/mL; in the data set with E. faecalis (VRE BM4147) (MHB + 10% FCS) it was 2 µg/mL. Further, the MIC in the data set on MSSA (ATCC 13709) (MHB + 0.05% BSA) was 0.25 µg/mL; in the data set with MSSA (ATCC 13709) (Staphylococcus aureus, MHB + 10% FCS) it was 0.25 to 0.5 µg/mL; with MSSA (ATCC 13709) (Staphylococcus aureus, MHB, read-out: MIC), 0.25 µg/mL (≈ 0.477 µM); in the data set on S. pneumoniae BAA225 (MHB) it was 1 to 2 µg/mL (≈ 1.91 to 3.81 µM); in the data set with S. pneumoniae BAA225 (MHB + 0.05% BSA) it was 1 to 2 µg/mL; in the data set with S. pneumoniae BAA225 (MHB + 10% FCS) it was 2 to 4 µg/mL. In addition, the MIC with MRSA NRS108 (MHB) was 1 to 8 µg/mL (≈ 1.91 to 15.2 µM); with MRSA NRS108 (MHB + 0.05% BSA), 2 µg/mL; in the data set with MRSA NRS108 (MHB + 10% FCS) it was 0.5 to 2 µg/mL; against E. faecium E4So1 (MHB), 2 µg/mL (≈ 3.81 µM); in the data set with E. faecium E4So1 (MHB + 0.05% BSA) it was 1 µg/mL; in the data set on E. faecium E4So1 (MHB + 10% FCS) it was 1 µg/mL. Moreover, the solubility in the data set “physchem” (aqueous with cosolvent or surfactant or cyclodextrin) is 300 µg/mL (≈ 572 µM); in “physchem” (organic solvent or mixture), > 5000 µg/mL. Besides, in the data set on bacterial cells, the “minimal concentration in which a 5 μL aliquot spotted onto a lawn of growing bacteria results in an observable zone of no growth” value amounted to 0.67 µg/mL.
Take Triton X100: in the data set with human red blood cells, the “A450 (hemoglobin released)” value is given as 0.41 and the “lysis of red blood cells” value is listed as “complete lysis”.

These data come from patent US20090149395A1, “NOVEL MACROCYCLIC POLYENE LACTAMS” (priority 2007, published 2009).
